Source: publication PMC12263422, “Cryo-EM structure of the human THIK-1 K2P K^+ channel reveals a lower Y gate regulated by lipids and anesthetics” (Nature Structural & Molecular Biology, 2025)
Numbering of substitutions follows the chain as printed. Where “and” joins values, the source holds several entries; their conditions need not be identical. Identical values can stand only once.

How the values were obtained:
Format in all cases: cell-based
[1] = target: T1, Human K2P13.1 THIK-1 (WT) (Homo sapiens, UniProt Q9HB14); test: Macroscopic inside-out excised patch recordings from Xenopus oocytes expressing WT THIK-1; compounds applied to the intracellular side; settings: for extent of activation by oleoyl-CoA: 5 µM oleoyl-CoA; for Fold activation: 5.0 µM oleoyl-CoA
T1 construct: expressed in transfected cells; host or cells: Xenopus oocytes (mRNA injection)
T1 sequence (Q9HB14 1-408): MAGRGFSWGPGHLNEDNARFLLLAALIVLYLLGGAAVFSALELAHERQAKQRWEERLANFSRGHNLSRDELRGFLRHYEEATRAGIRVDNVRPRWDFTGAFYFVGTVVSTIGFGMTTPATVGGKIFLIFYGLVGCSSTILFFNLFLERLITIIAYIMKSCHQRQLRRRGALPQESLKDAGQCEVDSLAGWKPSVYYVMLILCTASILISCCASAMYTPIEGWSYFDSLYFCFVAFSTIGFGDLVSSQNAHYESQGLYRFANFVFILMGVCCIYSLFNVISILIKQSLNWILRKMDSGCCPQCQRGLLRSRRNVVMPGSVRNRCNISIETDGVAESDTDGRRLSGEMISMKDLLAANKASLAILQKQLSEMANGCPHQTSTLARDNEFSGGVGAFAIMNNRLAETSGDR
Excerpt: (§1) Human K2P13.1 THIK-1 (GenBank accession number: NM_022054) and human K2P12.1 THIK-2 (NM_022055.1) were used in this study. For functional expression studies, the respective K^+ channel subtype coding sequences were subcloned into the oocyte expression vector pSGEM or the dual-purpose expression vector pFAW[41] and verified by sequencing. All mutant channels were obtained by site-directed mutagenesis and verified by sequencing. To increase surface expression and macroscopic currents, measurements of THIK-2 channels used a mutated ER retention motif, (R11A R12A R14A R15A R16A; THIK-2*)[20]. Vector DNA was linearized with NheI or MluI, and mRNA was synthesized in vitro using the SP6 or T7 AmpliCap Max High Yield Message Maker Kit (Cellscript, USA) or HiScribe T7 ARCA mRNA Kit (New England Biolabs).
(§2) Two-electrode voltage–clamp (TEVC) studies were performed in Xenopus oocytes. All animal use conformed to the Guide for the Care and Use of Laboratory Animals (NIH Publication 85–23), and all experiments using Xenopus toads were approved by the local ethics panels. Oocytes were stored at 17 °C in ND96 recording solution composed of (in mM): 96 NaCl, 2 KCl, 1.8 CaCl2, 1 MgCl2, 5 HEPES (pH 7.5 adjusted with NaOH and HCl), supplemented with Na-pyruvate (275 mg L^–1), theophylline (90 mg L^–1) and gentamicin (50 mg L^–1). Oocytes were injected with 1 ng mRNA for WT or mutant channels, and were incubated for 24–48 h at 17 °C. Two-electrode voltage clamp recordings were then performed as previously described[42],[43]. For macroscopic patch–clamp measurements, oocytes were obtained as described above incubated at 17 °C in a solution containing (mM): 54 NaCl, 30 KCl, 2.4 NaHCO3, 0.82 MgSO4 ×7 H2O, 0.41 CaCl2, 0.33 Ca(NO3)2 ×4 H2O and 7.5 TRIS (pH 7.4 adjusted with NaOH and HCl) for 1–4 days before use. Excised patch recordings in inside-out configuration conditions were performed at room temperature. Patch pipettes were made from thick-walled borosilicate glass GB 200TF-8P (Science Products), had resistances of 0.2–0.5 MΩ (tip diameter, 10–25 µm) and filled with a pipette solution (in mM): 120 KCl, 10 HEPES and 3.6 CaCl2 (pH 7.4 adjusted with KOH and HCl). Intracellular bath solutions and compounds were applied to the cytoplasmic side of excised patches for the various K^+ channels through a gravity flow multi-barrel pipette system. The intracellular solution had the following composition (in mM): 120 KCl, 10 HEPES, 2 EGTA and 1 pyrophosphate (pH adjusted with KOH and HCl). Currents were recorded with an EPC10 amplifier (HEKA Electronics) and sampled at 10 kHz or higher, with filtering set to 3 kHz (–3 dB) or higher, as appropriate for sampling rate. For measurements of GPCR activation, whole-cell currents were recorded for THIK-1 in transiently transfected HEK-293 cells. Cells were stimulated by a ramp protocol between −100 and +60 mV (holding potential, −80 mV). The pipette solution was composed of (in mM): 140 KCl, 2 MgCl2, 1 CaCl2, 2.5 EGTA and 10 HEPES (pH 7.3 adjusted with KOH and HCl). The extracellular bath solution had the following composition (in mM): 135 NaCl, 5 KCl, 2 MgCl2, 2 CaCl2, 10 glucose and 10 HEPES pH (pH 7.3 adjusted with NaOH and HCl). Oxotremorine M (Oxo-M) was added to extracellular bath solution to obtain the final concentration. Single-channel currents were recorded with an Axopatch 200B amplifier through a Digidata 1440A digitizer (Molecular Devices). Data were filtered at 2 kHz and recorded at a 200-kHz sampling rate with the program Clampex (Molecular Devices). Pipette solution and bath solution for cell-attached recordings contained (in mM): 140 KCl, 2 MgCl2, 1 CaCl2 and 10 HEPES (pH 7.4 adjusted with KOH and HCl). For inside-out recordings, the bath solution contained (in mM): 140 KCl, 2 MgCl2, 1 CaCl2 and 10 HEPES (pH 7.2 adjusted with KOH and HCl). All experiments were conducted at room temperature. […]

THIK-1 R92A = target: T2, THIK-1 R92A (Homo sapiens, UniProt Q9HB14, R92A); test: Inside-out excised patch recordings, oocytes, THIK-1 R92A mutant (lipid activation); settings: THIK-1 R92A
T2 construct: expressed in transfected cells; host or cells: Xenopus oocytes (mRNA injection)
T2 sequence (Q9HB14 1-408 R92A): T1 sequence (Q9HB14 1-408) with R92A
Excerpt: as §1, §2

THIK-1 F262A = target: T3, THIK-1 F262A (Homo sapiens, UniProt Q9HB14, F262A); test: Inside-out excised patch recordings, oocytes, THIK-1 F262A mutant (lipid activation); settings: THIK-1 F262A
T3 construct: expressed in transfected cells; host or cells: Xenopus oocytes (mRNA injection)
T3 sequence (Q9HB14 1-408 F262A): T1 sequence (Q9HB14 1-408) with F262A
Excerpt: as §1, §2

## CCCCCCCC/C=C\CCCCCCCC(=O)SCCNC(=O)CCNC(=O)[C@H](O)C(C)(C)COP(=O)(O)OP(=O)(O)OC[C@H]1O[C@@H](n2cnc3c(N)ncnc32)[C@H](O)[C@@H]1OP(=O)(O)O [oleoyl-CoA]
[1]; WT
  extent of activation by oleoyl-CoA: 14 ± 1 fold
[1]; WT preinhibited with halothane (15.2 mM)
  extent of activation by oleoyl-CoA: 8 ± 2 fold
[1]; WT, Halothane pre-inhibited (15.2 mM halothane), individual recordings
  Fold activation: 8.238 and 0.783 and 13.259 and 5.975 and 16.259 and 6.147 and 12.474 and 4.311
[1]; WT, Halothane pre-inhibited (15.2 mM halothane), mean
  Fold activation: 8.43
[1]; WT, absence of halothane, mean
  Fold activation: 13.60
[1]; THIK-1 WT, mean
  Fold activation with 5.0 µM oleoyl-CoA: 13.60
THIK-1 R92A; individual recordings
  Fold activation with 5.0 µM oleoyl-CoA: 19.660 and 15.940 and 13.100 and 29.730 and 21.570 and 18.010
THIK-1 R92A; mean
  Fold activation with 5.0 µM oleoyl-CoA: 19.67
THIK-1 F262A; individual recordings
  Fold activation with 5.0 µM oleoyl-CoA: 16.700 and 14.500 and 16.910 and 15.530 and 18.460 and 22.210
THIK-1 F262A; mean
  Fold activation with 5.0 µM oleoyl-CoA: 17.39
